Columns and labels:
[1] = tested on: EC L5 neurons; assay: Polysynaptic burst responses to single synaptic stimulation in acute brain slices 3 weeks post SE; format: cell-based, rat
Description: (§1) All experiments were performed on acute horizontal brain slices containing temporal neocortex, entorhinal cortex, subiculum and the ventral hippocampus. Control, or rats 2 or 3 weeks post-seizure, were anesthetized deeply with a mixture of ketamine and xylazine (85 and 15 mg/ml, respectively) and decapitated. The brains were removed rapidly and placed in an oxygenated (95% O2/5% CO2) ice-cold cutting solution containing (in mM): 3 KCl, 1.25 NaH2PO4, 6 MgSO4, 26 NaHCO3, 0.2 CaCl2, 10 glucose, 220 sucrose, and 0.43 ketamine. Slices (350 μm) were cut in ice-cold cutting solution with a vibratome (Dosaka DTK-1000) and transferred from there into Artificial Cerebro-Spinal Fluid (ACSF, in mM: 126 NaCl, 3 KCl, 1.25 NaH2PO4, 1 MgSO4, 26 NaHCO3, 2 CaCl2, and 10 glucose) equilibrated with 95% O2/5% CO2 at 34° C. temperature for recovery. After 1 hr ACSF was changed again, and the slices were held at room temperature until used for recording.
(§2) Individual slices were transferred to a recording chamber mounted on a fixed-stage microscope (Zeiss Axioskop, Jena, Germany) and superfused with warmed (34° C.), oxygenated ACSF at 2 ml/min. Intracellular recordings were made from EC layer 5 neurons with borosilicate glass sharp microelectrodes (80-150 MΩ) filled with either 1 M K2SO4, or 0.5 M potassium acetate/0.5 M KCl for lower electrode resistance, or 2 M CsSO4/0.1 M KCl for improved space clamp. […] Therefore all final recordings/data for bumetanide effects on GABAergic PSP reversal potential were obtained with microelectrodes filled with 1 M K2SO4 or 2 M CsSO4/0.1 M KCl.
(§3) Neurons were impaled in the medial entorhinal cortex just above the angular bundle, up to ¼ of cortex thickness, using a Nanostepper micropositioner (Scientific Precision Instruments, Oppenheim, Germany). Recordings were made using an Axoclamp 2B amplifier and digitized and recorded using an Axon Instruments Digidata 1322A (Molecular Devices, Union City, Calif.). Neurons with a RMP negative to −68 mV were tested with hyperpolarizing pulses to ˜−85 mV for the presence of Ih indicative of pyramidal neurons (Egorov et al., 2002; Egorov et al., 2003). […] Concentric bipolar stimulating electrodes (200 μm diameter, FHC Inc., ME, USA) were placed in layer 5 of EC, ˜150-250 μm from the recording electrode. Stimuli (70-100 μs, 100-800 nA) were controlled by a Master 8 programmable pulse generator connected to a stimulus isolation unit (A.M.P.I., Jerusalem, Israel). Full input-output relations for the EPSP and the IPSP were recorded, and stimulation intensities giving 70-90% of maximal response were used. Where indicated stimulation intensity was reduced to elicit 5-10% of maximal response.
For these determinations, a polysynaptic burst was defined as a post-synaptic response lasting more than 150 ms at half amplitude, elicited from −75 mV<RMP<−68 mV.

[2] = tested on: Li-pilocarpine SE rats; assay: Seizures after acute bumetanide injection, video recordings, 12-17 weeks after SE (FIG. 12); format: in vivo, rat; conditions: bumetanide 0.2 mg/kg body weight i.p., 12-17 weeks after Li-pilocarpine SE, n=5 rats
Description: (§4) All procedures were approved by the Institutional Animal Care and Use Committee at the University of New Mexico Health Sciences Center and were in accordance with National Institutes of Health Guide for the Care and Use of Laboratory Animals. Our protocol for the experiments here was a slight modification of a protocol published by Andre et al. (Andre et al., 2007). Twenty four hours prior to seizure induction, male Wistar rats, 2-3 months old, were administered s.c. 3 mmol/kg lithium chloride dissolved in isotonic NaCl saline Pilocarpine was then administered s.c. (25 mg/kg in isotonic NaCl). Once generalized limbic convulsions began, subcutaneous needle EEG electrodes were placed to confirm the development of status epilepticus (SE), defined as the occurrence of continuous high amplitude EEG spiking (Ormandy et al., 1989). These needles were fashioned from 25 gauge hypodermic needles (Becton Dickinson), with the hub cut off and bent at 60 degree angles so they will stay in place. […] 12 hours after SE onset the EEG was recorded again for 5-10 min, and all rats had intermittent or organized, i.e. bursts of EEG spiking.
Five Li-pilocarpine SE rats were subjected to a sequence of bumetanide or vehicle injections (5% ethanol in physiological saline, i.p., dates given on bottom line), and seizures occurring in the following 8 hours were analyzed by video recordings.

[3] = tested on: adult rat TLE model; conditions: infusion of very high doses, first 2 weeks after SE; cited from earlier work
[4] = tested on: Li-pilocarpine SE rats; assay: Spontaneous seizures with chronic bumetanide via the drinking water, 8 hour video recording (FIG. 18, 19); format: in vivo, rat
Description: as §4, with “place. One needle was inserted subcutaneously in the scalp over the parietal cortex and the other, which served as the reference electrode, over the scapula. […] Recording was then generally discontinued.” for “place.”, “spiking. […]” for “spiking.”

[5] = tested on: EC L5 neurons; assay: GABAAergic PSP reversal potential, sharp microelectrode recording in acute brain slices 3 weeks post SE; format: cell-based, rat
Description: as §1, §2, §3

[6] = tested on: pilocarpine SE rat; assay: Seizures provoked by open field exposure 6 weeks after end of chronic bumetanide treatment (FIG. 20); format: in vivo; conditions: 27 weeks post SE, 6 weeks after end of bumetanide treatment, within 15 min, n=6 rats per group
Description: as §4, with “place. One needle was inserted subcutaneously in the scalp over the parietal cortex and the other, which served as the reference electrode, over the scapula. […] Recording was then generally discontinued.” for “place.”, “spiking. […]” for “spiking.”

[7] = tested on: post SE rats; assay: Entering-a-dark box behavior in an open field (FIG. 21); format: in vivo, rat; conditions: chronic bumetanide from day 16 post SE for 12 weeks, 8 rats; control rats 78%, untreated post SE rats 15%
Description: as §4, with “place. One needle was inserted subcutaneously in the scalp over the parietal cortex and the other, which served as the reference electrode, over the scapula. […] Recording was then generally discontinued.” for “place.”, “spiking. […]” for “spiking.”

[8] = tested on: Li-pilocarpine SE rats; assay: Lithium-pilocarpine status epilepticus induction, drugs given 1 hour after SE onset; format: in vivo, rat; conditions: Diazepam 4 mg/kg i.m.; for effect on seizures (status epilepticus): given 1 hour after SE onset, Atropine sulfate 10 mg/kg s.c.
Description: as §4, with “place. One needle was inserted subcutaneously in the scalp over the parietal cortex and the other, which served as the reference electrode, over the scapula. […] Recording was then generally discontinued. Atropine sulfate (10 mg/kg s.c.) and Diazepam (4 mg/kg i.m.) were administered in order to improve survival, decrease anxiety and induce muscle relaxation.” for “place.”

Molecule: CCCCNc1cc(C(=O)O)cc(S(N)(=O)=O)c1Oc1ccccc1 [bumetanide]
- neurons with a polysynaptic response after washout of bumetanide ([1]; 30 min washout, n=14): 35.1%
- decrease of response duration at half-maximal amplitude in bumetanide ([1]; bumetanide 10 μM, 3 weeks post SE): 36±9 % of the control response
- neurons with a polysynaptic response in bumetanide ([1]; bumetanide 10 μM, cells from rats 3 weeks after pilocarpine insult, n=14, 64.8% before drug): 11.6%
- response duration at half-maximal amplitude during washout of bumetanide ([1]; recovered to, relative to control response): 75±11%
- seizures occurring in the 8 hours following injection [2]: suppression of seizures
- suppression of SRS by bumetanide treatment [3]: complete failure
- rats in which bumetanide prevented seizures completely ([4]; bumetanide via the drinking water, 0.65±0.13 mg/day, two other rats had reduced seizures): 4 rats
- seizure occurrence as % of seizures in time post SE-matched control SE rats ([4]; three and six weeks after end of 20 weeks chronic bumetanide via drinking water, n=6 rats per group): 15-22%
- E(PSP) of an EC L5 neuron after a 20 min exposure to bumetanide (FIG. 10A) ([5]; 3 weeks after SE, CNQX 10 μM and APV 50 μM present, shifts from −29.7 mV): −60.9 mV
- reduction of driving force at −45 mV versus control rats ([5]; 3 weeks after SE, in the presence of bumetanide): ~42%
- driving force for Cl− at −45 mV in the presence of bumetanide ([5]; 3 weeks after SE, ˜26 mV in control rats): ~15 mV
- absolute voltage average E(PSP) during washout of bumetanide ([5]; 3 weeks post SE, n=5): −34.2±3.4 mV
- average PSP reversal potential relative to RMP ([5]; bumetanide 10 μM, EC L5 neurons 3 weeks post SE, RMP ˜−72 mV, more than +40 mV without drug): +10 mV
- seizures provoked by open field exposure as % of time post SE-matched control SE rats [6]: less than 15%
- trials in which rats entered the dark box [7]: 67 % of trials

Molecule: CN1C(=O)CN=C(c2ccccc2)c2cc(Cl)ccc21 [Diazepam]
- muscle relaxation [8]: induced muscle relaxation within one hour
- effect on seizures (status epilepticus) [8]: did not stop seizures

Molecule: picrotoxin
- number of spikes in polysynaptic burst responses in picrotoxin ([1]; picrotoxin 100 μM, 3 weeks post SE, n=8 neurons, 9.8±0.8 before drug): 7.9±0.7 spikes per response
- burst duration in picrotoxin, result in words ([1]; picrotoxin 100 μM, FIG. 11D): did not reach statistical significance
- reduction of action potential amplitudes in the averaged burst responses ([1]; picrotoxin 100 μM, averages of ten responses, n=8, p=0.094): 10.5±3.4%
- decrease of the duration of polysynaptic bursts ([1]; picrotoxin 100 μM, trend, n=8, p=0.094): 10.5%

Molecule: CN1[C@@H]2CC[C@H]1CC(OC(=O)C(CO)c1ccccc1)C2.CN1[C@@H]2CC[C@H]1CC(OC(=O)C(CO)c1ccccc1)C2.O=S(=O)(O)O (stereo partly shown) [atropine, Atropine sulfate]
- effect on seizures (status epilepticus) [8]: Nor did atropine stop seizures
